Experimental data taken from PubChem BioAssay AID270 (DTP/NCI, 2004).
Several values for one entry are separate records, joined by “and”; a condition that tells them apart may be missing. Equal values may be shown once. Records with an inconclusive call do not appear.

Test system: BDF1 mice, s.c. Lewis lung carcinoma, T/C %
Assay: NCI In Vivo Anticancer Drug Screen. Data for tumor model Lewis Lung Carcinoma (subcutaneous) in B6D2F1 (BDF1) mice
How it was run: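 Antitumor effect in vivo is scored from survival or tumor burden, reported as treated relative to vehicle controls.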

For `N#Cc1ncc(C(Cl)Cl)nc1Cl`, the T/C (endpoint: median survival time, dose: 25.0 mg/kg/injection, schedule: Q01DX009 (ip), vehicle: saline with Tween-80, higher = longer survival) was 113 % of control and the T/C (endpoint: median survival time, dose: 50.0 mg/kg/injection, schedule: Q01DX009 (ip), vehicle: saline with Tween-80, higher = longer survival) was 98 % of control.

With `CC(=O)CC(=O)Nc1ccc(Cl)cc1` the T/C (endpoint: mean tumor weight, dose: 111.0 mg/kg/injection, schedule: Q01DX011 (ip), vehicle: other, higher = larger tumour) was 151 % of control, the T/C (endpoint: mean tumor weight, dose: 166.0 mg/kg/injection, schedule: Q01DX011 (ip), vehicle: other, higher = larger tumour) was 156 % of control and the T/C (endpoint: mean tumor weight, dose: 250.0 mg/kg/injection, schedule: Q01DX011 (ip), vehicle: other, higher = larger tumour) was 121 % of control. For the same compound, the T/C (endpoint: mean tumor weight, dose: 500.0 mg/kg/injection, schedule: Q01DX011 (ip), vehicle: other, higher = larger tumour) was 64 % of control.

With `CC1CN(C(=O)CCl)c2ccccc2N1C(=O)CCl` (stereo not drawn) the T/C (endpoint: mean tumor weight, dose: 1.0 mg/kg/injection, schedule: Q01DX011 (ip), vehicle: carboxymethylcellulose (CMC), higher = larger tumour) was 121 % of control, the T/C (endpoint: mean tumor weight, dose: 2.0 mg/kg/injection, schedule: Q01DX011 (ip), vehicle: carboxymethylcellulose (CMC), higher = larger tumour) was 94 % of control and the T/C (endpoint: mean tumor weight, dose: 4.0 mg/kg/injection, schedule: Q01DX011 (ip), vehicle: carboxymethylcellulose (CMC), higher = larger tumour) was 75 % of control. For the same compound, the T/C (endpoint: mean tumor weight, dose: 8.0 mg/kg/injection, schedule: Q01DX011 (ip), vehicle: carboxymethylcellulose (CMC), higher = larger tumour) was 124 % of control.

For `COc1cc(NS(C)(=O)=O)ccc1Nc1c2ccccc2nc2c(C)cccc12`, the T/C (endpoint: median survival time, dose: 1.25 mg/kg/injection, schedule: Q01DX009 (ip), vehicle: Klucel (hydroxypropylcellulose) (HPC), higher = longer survival) was 103 % of control and the T/C (endpoint: median survival time, dose: 5.0 mg/kg/injection, schedule: Q01DX009 (ip), vehicle: Klucel (hydroxypropylcellulose) (HPC), higher = longer survival) was 121 % of control.

With `CCC[CH2][Sn]1([CH2]CCC)[O]C(=O)C[S]1` the T/C (endpoint: mean tumor weight, dose: 4.0 mg/kg/injection, schedule: Q01DX011 (ip), vehicle: saline, higher = larger tumour) was 88 % of control, the T/C (endpoint: mean tumor weight, dose: 8.0 mg/kg/injection, schedule: Q01DX011 (ip), vehicle: saline, higher = larger tumour) was 50 % of control and the T/C (endpoint: mean tumor weight, dose: 16.0 mg/kg/injection, schedule: Q01DX011 (ip), vehicle: saline, higher = larger tumour) was 100 % of control.

`c1cn[nH]c1` was tested, and the T/C (endpoint: mean tumor weight, dose: 20.0 mg/kg/injection, schedule: Q01DX011 (ip), vehicle: water, higher = larger tumour) was 54 % of control, the T/C (endpoint: mean tumor weight, dose: 40.0 mg/kg/injection, schedule: Q01DX011 (ip), vehicle: water, higher = larger tumour) was 45 % of control and the T/C (endpoint: mean tumor weight, dose: 80.0 mg/kg/injection, schedule: Q01DX011 (ip), vehicle: water, higher = larger tumour) was 32 % of control.

For `C=CCNc1ccc(C)cc1`, the T/C (endpoint: mean tumor weight, dose: 12.5 mg/kg/injection, schedule: Q01DX011 (ip), vehicle: carboxymethylcellulose (CMC), higher = larger tumour) was 92 % of control, the T/C (endpoint: mean tumor weight, dose: 25.0 mg/kg/injection, schedule: Q01DX011 (ip), vehicle: carboxymethylcellulose (CMC), higher = larger tumour) was 93 % of control and the T/C (endpoint: mean tumor weight, dose: 50.0 mg/kg/injection, schedule: Q01DX011 (ip), vehicle: carboxymethylcellulose (CMC), higher = larger tumour) was 37 % of control. The T/C (endpoint: mean tumor weight, dose: 100.0 mg/kg/injection, schedule: Q01DX011 (ip), vehicle: carboxymethylcellulose (CMC), higher = larger tumour) was 5 % of control.

In the case of `O=C1CCC(=O)N1Br`, the T/C (endpoint: mean tumor weight, dose: 50.0 mg/kg/injection, schedule: Q01DX011 (ip), vehicle: other, higher = larger tumour) is reported as 99 % of control, the T/C (endpoint: mean tumor weight, dose: 75.0 mg/kg/injection, schedule: Q01DX011 (ip), vehicle: other, higher = larger tumour) is reported as 59 % of control and 75 % of control and the T/C (endpoint: mean tumor weight, dose: 150.0 mg/kg/injection, schedule: Q01DX011 (ip), vehicle: other, higher = larger tumour) is reported as 76 % of control. The T/C (endpoint: mean tumor weight, dose: 300.0 mg/kg/injection, schedule: Q01DX011 (ip), vehicle: other, higher = larger tumour) was 115 % of control.

With `COc1ccc(-c2cc(=O)c3c(O)c(OC)c(OC)c(OC)c3o2)cc1` the T/C (endpoint: mean tumor weight, dose: 12.5 mg/kg/injection, schedule: Q01DX011 (ip), vehicle: saline, higher = larger tumour) was 95 % of control, the T/C (endpoint: mean tumor weight, dose: 25.0 mg/kg/injection, schedule: Q01DX011 (ip), vehicle: saline, higher = larger tumour) was 100 % of control and the T/C (endpoint: mean tumor weight, dose: 50.0 mg/kg/injection, schedule: Q01DX011 (sc), vehicle: steriod suspending solution, higher = larger tumour) was 63 % of control. The T/C (endpoint: mean tumor weight, dose: 100.0 mg/kg/injection, schedule: Q01DX011 (sc), vehicle: steriod suspending solution, higher = larger tumour) was 90 % of control.

`CC(=O)NC(Cc1ccc(N(CCCl)CCCl)cc1)C(=O)O` (stereo not drawn) was tested, and the T/C (endpoint: median survival time, dose: 3.13 mg/kg/injection, schedule: Q01DX009 (ip), vehicle: other, higher = longer survival) was 104 % of control, the T/C (endpoint: median survival time, dose: 6.25 mg/kg/injection, schedule: Q01DX009 (ip), vehicle: other, higher = longer survival) was 120 % of control and the T/C (endpoint: median survival time, dose: 25.0 mg/kg/injection, schedule: Q01DX009 (ip), vehicle: other, higher = longer survival) was 114 % of control.

`Nc1ncnc2c1ncn2C1OC(CO)CC1O` (stereo not drawn) was tested, and the T/C (endpoint: mean tumor weight, dose: 37.0 mg/kg/injection, schedule: Q01DX011 (ip), vehicle: saline, higher = larger tumour) was 101 % of control and the T/C (endpoint: mean tumor weight, dose: 75.0 mg/kg/injection, schedule: Q01DX011 (ip), vehicle: saline, higher = larger tumour) was 86 % of control.

For `O=c1[nH]c(=O)n(C2CC(O)C(CO)O2)cc1C(F)(F)F` (stereo not drawn), the T/C (endpoint: median survival time, dose: 2.5 mg/kg/injection, schedule: Q01DX009 (ip), vehicle: saline, higher = longer survival) was 119 % of control, the T/C (endpoint: median survival time, dose: 5.0 mg/kg/injection, schedule: Q01DX009 (ip), vehicle: saline, higher = longer survival) was 103 % of control and the T/C (endpoint: median survival time, dose: 10.0 mg/kg/injection, schedule: Q01DX009 (ip), vehicle: saline, higher = longer survival) was 118 % of control.
